Test results: ChEMBL document CHEMBL1201862, “PubChem BioAssay data set” (2004)
Active and inactive are the calls of the source.

Legend:
HT-1080 = assay: HT1080 cell viability loss – fluorescence readout (AID 620); assay type: functional, cell-based; settings: Homo sapiens
[1] = target: T1, Luciferin 4-monooxygenase (Photinus pyralis, UniProt P08659); assay: inhibition of purified Photinus pyralis luciferase – biochemical, luminescence, dose response (AID 1891)
[2] = target: T1, Luciferin 4-monooxygenase; assay: Counter Screen for Luciferase-based Assay Positives. [Related pubchem assays: 620, 618, 411 ]
[3] = Luminescence Cell-Based Dose Confirmation HTS to Identify Inhibitors of Platelet Dense Granule Release. [Related pubchem assays: 1663 (Primary HTS), 1678 (Summary of Project)]; assay type: functional
Estrogen receptor = target: T2, Estrogen receptor (Homo sapiens, UniProt P03372);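 note: potency for inhibiting coactivator peptide recruitment to the receptor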
T2 sequence (P03372 whole entry): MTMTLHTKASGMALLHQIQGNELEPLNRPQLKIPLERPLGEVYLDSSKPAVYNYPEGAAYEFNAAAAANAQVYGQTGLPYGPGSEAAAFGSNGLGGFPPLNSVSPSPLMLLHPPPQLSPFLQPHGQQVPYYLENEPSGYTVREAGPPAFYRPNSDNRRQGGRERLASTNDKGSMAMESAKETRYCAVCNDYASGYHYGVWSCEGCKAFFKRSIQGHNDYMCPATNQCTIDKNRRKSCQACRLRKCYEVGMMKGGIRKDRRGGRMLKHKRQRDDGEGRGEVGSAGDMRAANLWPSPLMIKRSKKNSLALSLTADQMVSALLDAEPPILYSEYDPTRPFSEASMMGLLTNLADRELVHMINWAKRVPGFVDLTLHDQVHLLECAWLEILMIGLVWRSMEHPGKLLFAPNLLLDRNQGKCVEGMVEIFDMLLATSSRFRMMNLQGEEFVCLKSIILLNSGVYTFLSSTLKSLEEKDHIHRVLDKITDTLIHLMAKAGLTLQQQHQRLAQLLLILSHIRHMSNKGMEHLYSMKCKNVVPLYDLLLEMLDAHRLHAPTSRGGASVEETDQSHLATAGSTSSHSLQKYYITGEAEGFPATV

[4] = target: T3, Sentrin-specific protease 6 (Homo sapiens, UniProt Q9GZR1); assay: SAR Analysis of small molecule inhibitors of Sentrin-specific protease 6 (SENP6) using a Luminescent assay. [Related pubchem assays (depositor defined):AID2582, AID2599]; assay type: functional
T3 sequence (Q9GZR1 whole entry): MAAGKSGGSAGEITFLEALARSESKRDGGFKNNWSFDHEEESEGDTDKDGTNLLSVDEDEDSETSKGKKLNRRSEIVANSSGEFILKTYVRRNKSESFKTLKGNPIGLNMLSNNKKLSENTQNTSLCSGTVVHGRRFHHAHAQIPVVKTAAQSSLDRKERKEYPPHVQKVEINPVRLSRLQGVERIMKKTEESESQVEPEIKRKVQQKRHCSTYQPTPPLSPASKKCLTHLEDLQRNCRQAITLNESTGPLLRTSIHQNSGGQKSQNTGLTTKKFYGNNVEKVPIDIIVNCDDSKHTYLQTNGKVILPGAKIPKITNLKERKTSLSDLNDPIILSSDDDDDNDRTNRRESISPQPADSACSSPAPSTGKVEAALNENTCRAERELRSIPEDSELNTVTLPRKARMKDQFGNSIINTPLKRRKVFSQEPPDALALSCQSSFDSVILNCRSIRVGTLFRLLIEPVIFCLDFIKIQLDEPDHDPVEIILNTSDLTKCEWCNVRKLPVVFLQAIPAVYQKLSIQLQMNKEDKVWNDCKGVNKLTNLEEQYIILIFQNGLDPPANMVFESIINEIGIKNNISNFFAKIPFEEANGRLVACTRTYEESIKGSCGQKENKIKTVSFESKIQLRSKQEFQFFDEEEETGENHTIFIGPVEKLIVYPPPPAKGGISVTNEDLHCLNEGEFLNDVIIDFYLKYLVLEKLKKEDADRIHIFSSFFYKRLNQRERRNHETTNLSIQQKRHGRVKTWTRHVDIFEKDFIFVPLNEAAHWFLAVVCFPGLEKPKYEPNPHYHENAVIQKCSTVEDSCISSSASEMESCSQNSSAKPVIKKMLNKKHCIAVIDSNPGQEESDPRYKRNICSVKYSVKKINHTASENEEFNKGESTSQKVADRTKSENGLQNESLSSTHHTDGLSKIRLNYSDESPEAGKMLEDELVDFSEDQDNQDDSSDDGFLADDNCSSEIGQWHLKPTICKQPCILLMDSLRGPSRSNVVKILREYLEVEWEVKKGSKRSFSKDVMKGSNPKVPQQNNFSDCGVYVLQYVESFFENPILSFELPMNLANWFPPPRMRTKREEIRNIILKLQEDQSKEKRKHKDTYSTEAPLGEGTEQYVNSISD

[5] = target: T4, Sentrin-specific protease 7 (Homo sapiens, UniProt Q9BQF6); assay: inhibition of human SENP7 cleavage activity – biochemical, luminescence, SAR follow-up (AID 504497); assay type: functional
T4 sequence (Q9BQF6 whole entry): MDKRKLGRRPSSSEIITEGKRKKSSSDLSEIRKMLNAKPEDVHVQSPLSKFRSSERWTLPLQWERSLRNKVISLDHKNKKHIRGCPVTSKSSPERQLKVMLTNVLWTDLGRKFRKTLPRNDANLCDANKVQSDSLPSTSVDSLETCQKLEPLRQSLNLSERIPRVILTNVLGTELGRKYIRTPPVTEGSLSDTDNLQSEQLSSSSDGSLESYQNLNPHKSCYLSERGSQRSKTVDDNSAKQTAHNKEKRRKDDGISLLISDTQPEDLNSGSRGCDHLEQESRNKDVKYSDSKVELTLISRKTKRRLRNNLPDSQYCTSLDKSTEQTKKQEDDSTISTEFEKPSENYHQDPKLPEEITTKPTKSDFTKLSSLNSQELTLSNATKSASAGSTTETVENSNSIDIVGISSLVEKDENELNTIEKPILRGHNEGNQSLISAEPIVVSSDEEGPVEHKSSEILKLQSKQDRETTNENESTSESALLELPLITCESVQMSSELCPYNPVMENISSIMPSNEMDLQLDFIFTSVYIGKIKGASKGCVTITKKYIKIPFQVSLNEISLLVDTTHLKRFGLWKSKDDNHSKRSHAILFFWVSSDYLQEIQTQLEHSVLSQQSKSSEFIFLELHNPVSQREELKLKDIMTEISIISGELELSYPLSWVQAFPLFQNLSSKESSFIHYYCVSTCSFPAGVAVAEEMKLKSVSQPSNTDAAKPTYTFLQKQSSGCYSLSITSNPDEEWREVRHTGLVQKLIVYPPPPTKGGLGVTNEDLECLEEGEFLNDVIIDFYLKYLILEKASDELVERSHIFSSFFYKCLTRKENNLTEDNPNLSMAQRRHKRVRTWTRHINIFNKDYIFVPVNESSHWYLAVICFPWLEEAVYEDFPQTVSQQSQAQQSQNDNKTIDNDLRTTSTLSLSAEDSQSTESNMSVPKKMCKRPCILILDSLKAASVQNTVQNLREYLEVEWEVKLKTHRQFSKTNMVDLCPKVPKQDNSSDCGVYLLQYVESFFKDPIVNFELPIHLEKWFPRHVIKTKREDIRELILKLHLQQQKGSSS

Caspase-3 = target: T5, Caspase-3 (Homo sapiens, UniProt P42574); assay: SAR Analysis of small molecule inhibitors of Sentrin-specific proteases (SENPs) using a Caspase-3 Selectivity assay. [Related pubchem assays (depositor defined):AID2540, AID2599, AID434973, AID489001]; assay type: functional
T5 sequence (P42574 whole entry): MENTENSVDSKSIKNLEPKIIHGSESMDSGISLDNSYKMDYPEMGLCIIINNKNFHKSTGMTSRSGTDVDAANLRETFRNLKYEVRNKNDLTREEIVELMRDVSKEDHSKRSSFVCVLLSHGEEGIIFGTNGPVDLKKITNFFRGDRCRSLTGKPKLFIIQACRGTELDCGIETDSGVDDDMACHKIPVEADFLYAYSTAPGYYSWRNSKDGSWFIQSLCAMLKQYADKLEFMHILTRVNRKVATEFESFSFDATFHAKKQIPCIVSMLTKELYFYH

[6] = target: T6, Sentrin-specific protease 8 (Homo sapiens, UniProt Q96LD8); assay: inhibition of human SENP8 cleavage activity – biochemical, luminescence, SAR follow-up (AID 504501); assay type: functional
T6 sequence (Q96LD8 whole entry): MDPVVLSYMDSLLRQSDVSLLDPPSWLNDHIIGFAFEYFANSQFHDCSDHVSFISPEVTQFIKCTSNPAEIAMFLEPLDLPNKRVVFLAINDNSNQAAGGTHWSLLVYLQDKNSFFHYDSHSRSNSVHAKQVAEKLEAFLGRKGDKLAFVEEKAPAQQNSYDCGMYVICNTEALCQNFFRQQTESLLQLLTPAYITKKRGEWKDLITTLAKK

T1 sequence (P08659 whole entry): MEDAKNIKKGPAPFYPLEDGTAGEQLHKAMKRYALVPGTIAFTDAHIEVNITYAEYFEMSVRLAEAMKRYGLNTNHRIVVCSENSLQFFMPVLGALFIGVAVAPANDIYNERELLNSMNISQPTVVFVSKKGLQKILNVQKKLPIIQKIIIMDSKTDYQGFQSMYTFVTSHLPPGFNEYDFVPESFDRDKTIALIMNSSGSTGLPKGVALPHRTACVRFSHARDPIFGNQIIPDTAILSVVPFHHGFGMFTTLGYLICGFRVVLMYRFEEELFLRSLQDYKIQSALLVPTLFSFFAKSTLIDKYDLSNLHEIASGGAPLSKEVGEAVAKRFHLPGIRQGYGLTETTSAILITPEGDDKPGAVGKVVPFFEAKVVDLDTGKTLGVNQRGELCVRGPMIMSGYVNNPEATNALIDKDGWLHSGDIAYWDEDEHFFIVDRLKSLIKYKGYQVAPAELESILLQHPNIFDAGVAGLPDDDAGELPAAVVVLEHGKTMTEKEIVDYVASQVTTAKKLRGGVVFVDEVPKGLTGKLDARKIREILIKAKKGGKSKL

Row | Compound | EC50 (HT-1080) | EC50 [1] | EC50 [2] | EC50 [3] | IC50 (Estrogen receptor) | IC50 [4] | IC50 [5] | IC50 (Caspase-3) | IC50 [6]
1 | COC(=O)c1nn(-c2ccc(-c3ccccc3)cc2)cc1O | > 50 µM (not active) | 1.93 µM (active) | > 100 µM (not active) | 3.79 µM (active) |  |  |  |  | 
2 | CC1CCc2c(sc(NC(=O)c3ccc(Cn4cc(Br)cn4)o3)c2C(N)=O)C1 (stereo unspecified) |  |  |  |  | > 50 µM (not active) | > 99 µM (inactive) | > 99 µM (inactive) | > 99 µM (inactive) | > 99 µM (inactive)
3 | Cc1cc(C)c(OCC(=O)Nc2cccc(O)c2)cc1C | > 50 µM (not active) |  | 3.52 µM (active) |  |  |  |  |  | 
